Data as given in the NIST ThermoML archive (doi:10.1016/j.jct.2015.07.029).

Assay: mn = molality of the nth substance listed, in mol/kg
Conditions: 101.3 kPa, Liquid, Alternating current cell with electrodes

O=C(O)c1ccc(O)c(O)c1 [3,4-dihydroxybenzoic acid] + O
electrical conductivity [S/m]
Conditions | m1 = 0.001 | m1 = 0.002 | m1 = 0.004 | m1 = 0.006 | m1 = 0.008 | m1 = 0.01
288.15 K | 0.0048 | 0.007 | 0.0102 | 0.0126 | 0.0146 | 0.0164
291.15 K | 0.0051 | 0.0074 | 0.0107 | 0.0132 | 0.0154 | 0.0173
294.15 K | 0.0054 | 0.0078 | 0.0113 | 0.014 | 0.0162 | 0.0182
298.15 K | 0.0058 | 0.0084 | 0.0121 | 0.015 | 0.0174 | 0.0196
